{
  "source": "patent US20250230193A1",
  "about": "“CYCLIC COMPOUND HAVING SELECTIVE KRAS INHIBITORY EFFECT ON HRAS AND NRAS” (CHUGAI SEIYAKU KABUSHIKI KAISHA, priority 2022, published 2025)",
  "key": {"[1]": {"target": "GDP-bound NRAS wild-type protein (Homo sapiens, UniProt P01111)", "sequence (P01111 whole entry)": "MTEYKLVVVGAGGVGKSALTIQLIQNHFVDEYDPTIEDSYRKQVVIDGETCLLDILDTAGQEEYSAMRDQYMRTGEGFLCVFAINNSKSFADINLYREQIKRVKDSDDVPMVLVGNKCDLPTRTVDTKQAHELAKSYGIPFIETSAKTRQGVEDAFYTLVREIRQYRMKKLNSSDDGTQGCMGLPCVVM", "assay": "Binding to NRAS by surface plasmon resonance (SPR), Single Cycle Kinetics"}, "[2]": {"target": "GDP-bound HRAS wild-type protein (Homo sapiens, UniProt P01112)", "sequence (P01112 whole entry)": "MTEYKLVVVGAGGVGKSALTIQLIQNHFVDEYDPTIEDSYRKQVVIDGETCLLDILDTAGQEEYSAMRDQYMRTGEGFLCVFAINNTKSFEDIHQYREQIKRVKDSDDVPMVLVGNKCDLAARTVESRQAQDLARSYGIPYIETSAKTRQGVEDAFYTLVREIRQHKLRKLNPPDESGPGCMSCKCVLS", "assay": "Binding to HRAS by surface plasmon resonance (SPR), Single Cycle Kinetics"}, "[3]": {"conditions": "SPR, GDP-bound NRAS wild-type vs GDP-bound KRAS wild-type"}, "[4]": {"conditions": "SPR, GDP-bound HRAS wild-type vs GDP-bound KRAS wild-type"}},
  "note": "Where a SMILES comes first, the peptide text is derived from it. Bridges are numbered along the chain shown (N, C = ends). [ ]: non-standard residue; d: D form. The star is where a group is joined. hPhe(3-Cl-4-CF3) = N[C@@H](CCc1ccc(C(F)(F)F)c(Cl)c1)C(=O)O; NPrPhe(4-CF3) = CCCN[C@@H](Cc1ccc(C(F)(F)F)cc1)C(=O)O; NEtPhe(4-CF3) = CCN[C@@H](Cc1ccc(C(F)(F)F)cc1)C(=O)O; NMeGly(cPent) = CN[C@H](C(=O)O)C1CCCC1; Pro(4S-Me) = C[C@@H]1CN[C@H](C(=O)O)C1; NMeD = CN[C@@H](CC(=O)O)C(=O)O; NMeL = CN[C@@H](CC(C)C)C(=O)O; Morpholide = C1CN(*)CCO1; NMeA = CN[C@@H](C)C(=O)O; Ac5c = NC1(C(=O)O)CCCC1; Aze = O=C(O)[C@@H]1CCN1; NcPrGly = O=C(O)CNC1CC1; Sar = CNCC(=O)O",
  "data": [
    {"smiles": "CC[C@H](C)[C@@H]1NC(=O)[C@H](CC(C)C)N(C)C(=O)C[C@@H](C(=O)N2CCOCC2)N(C)C(=O)[C@H](C2CCCC2)N(C)C(=O)C2(CCCC2)NC(=O)[C@@H]2CCCN2C(=O)[C@H](CCc2ccc(C(F)(F)F)c(Cl)c2)NC(=O)CN(C)C(=O)[C@H](Cc2ccc(C(F)(F)F)cc2)N(CC)C(=O)[C@@H]2CCN2C(=O)[C@H](C)N(C)C1=O", "note": "[PP0002] ([NMeL]I[NMeA][Aze][NEtPhe(4-CF3)][Sar][hPhe(3-Cl-4-CF3)]P[Ac5c][NMeGly(cPent)][NMeD]-Morpholide; lactam N-11)", "values": [
      {"measurement": "NRAS/KRAS (ratio of KD for GDP-bound NRAS wild-type to KD for KRAS)", "setting": "[1]; SPR", "value": "C (A compound having a KD ratio of 0.1 or more and less than 3 is denoted as C)"},
      {"measurement": "HRAS/KRAS (ratio of KD for GDP-bound HRAS wild-type to KD for KRAS)", "setting": "[2]; SPR", "value": "C (A compound having a KD ratio of 0.1 or more and less than 3 is denoted as C)"}
    ]},
    {"smiles": "CCC[C@H]1C(=O)N[C@@H]([C@@H](C)CC)C(=O)N(C)CC(=O)N(C)[C@H]2C/C=C\\CCN(C2=O)[C@@H](Cc2ccc(C)cc2)C(=O)N(C)CC(=O)N[C@@H](CCc2ccc(CC)c(Cl)c2)C(=O)N2C[C@H](OCC)C[C@H]2C(=O)NC2(CC(C)(C)C2)C(=O)N(C)[C@@H](C(CC)CC)C(=O)N(C)[C@H](C(=O)N(C)C)CC(=O)N1C", "note": "[PP2779]", "values": [
      {"measurement": "NRAS/KRAS (ratio of KD value with respect to GDP-bound NRAS wild-type protein to KD value with respect to KRAS)", "setting": "[1]; class symbols", "value": "A (a compound having 10 or more and less than 20 is denoted as A)"},
      {"measurement": "HRAS/KRAS (ratio of KD value with respect to GDP-bound HRAS wild-type protein to KD value with respect to KRAS)", "setting": "[2]; class symbols", "value": "A (a compound having 10 or more and less than 20 is denoted as A)"}
    ]},
    {"smiles": "CC[C@H](C)[C@@H]1NC(=O)[C@H](CC(C)C)N(C)C(=O)C[C@@H](C(=O)N(C)CC)N(C)C(=O)[C@H](C2CCCC2)N(C)C(=O)C2(CCC2)NC(=O)[C@@H]2C[C@@H](C)CN2C(=O)[C@H](CCc2ccc(C(F)(F)F)c(OC)c2)NC(=O)CN(C)C(=O)[C@H](Cc2ccc(C)cc2)N2CC/C=C\\C[C@@H](C2=O)N(C)C(=O)CN(C)C1=O", "note": "[PP1907]", "values": [
      {"measurement": "NRAS/KRAS (ratio of KD value for NRAS to KD value for KRAS)", "setting": "[1]; KD ratio, GDP-bound NRAS wild-type vs GDP-bound KRAS wild-type, SPR", "value": "AA (a compound having 20 or more is denoted as AA)"},
      {"measurement": "HRAS/KRAS (ratio of KD value for HRAS to KD value for KRAS)", "setting": "[2]; KD ratio, GDP-bound HRAS wild-type vs GDP-bound KRAS wild-type, SPR", "value": "A (a compound having 10 or more and less than 20 is denoted as A)"}
    ]},
    {"smiles": "CCCN(C)C(=O)[C@@H]1CC(=O)N(C)[C@@H](C2CC2)C(=O)N[C@@H]([C@@H](C)CC)C(=O)N(C)CC(=O)N(C)[C@H]2C/C=C\\CCN(C2=O)[C@@H](Cc2ccc(C(F)(F)F)cc2)C(=O)N(C)CC(=O)N[C@@H](CCc2cc(F)c(C(F)(F)F)c(F)c2)C(=O)N2C[C@H](OCC)C[C@H]2C(=O)NC2(CC(C)(C)C2)C(=O)N(C)[C@@H](C2CCCC2)C(=O)N1C", "note": "[PP2037]", "values": [
      {"measurement": "NRAS/KRAS (ratio of KD value with respect to NRAS to KD value with respect to KRAS)", "setting": "[1]; [3]", "value": "A (a compound having 10 or more and less than 20 is denoted as A)"},
      {"measurement": "HRAS/KRAS (ratio of KD value with respect to HRAS to KD value with respect to KRAS)", "setting": "[2]; [4]", "value": "A (a compound having 10 or more and less than 20 is denoted as A)"}
    ]},
    {"smiles": "CCCN1C(=O)CN(C)C(=O)[C@@H]2CCN2C(=O)[C@H]([C@@H](C)CC)NC(=O)[C@H](CC(C)C)N(C)C(=O)C[C@@H](C(=O)N2CCOCC2)N(C)C(=O)[C@H](C2CCCC2)N(C)C(=O)C2(CCCC2)NC(=O)[C@@H]2C[C@H](C)CN2C(=O)[C@H](CCc2ccc(C(F)(F)F)c(Cl)c2)NC(=O)CN(C)C(=O)[C@@H]1Cc1ccc(C(F)(F)F)cc1", "note": "[PP0453] ([NMeL]I[Aze][Sar][NPrPhe(4-CF3)][Sar][hPhe(3-Cl-4-CF3)][Pro(4S-Me)][Ac5c][NMeGly(cPent)][NMeD]-Morpholide; lactam N-11)", "values": [
      {"measurement": "NRAS/KRAS (ratio of KD value with respect to GDP-bound NRAS wild-type protein to KD value with respect to KRAS)", "setting": "[1]; SPR", "value": "B (a compound having 3 or more and less than 10 is denoted as B)"},
      {"measurement": "HRAS/KRAS (ratio of KD value with respect to GDP-bound HRAS wild-type protein to KD value with respect to KRAS)", "setting": "[2]; SPR", "value": "C (A compound having a KD ratio of 0.1 or more and less than 3 is denoted as C)"}
    ]},
    {"smiles": "CCO[C@@H]1C[C@H]2C(=O)NC3(CC(C)(C)C3)C(=O)N(C)[C@@H](C(CC)CC)C(=O)N(C)[C@H](C(=O)N(C)C)CC(=O)N(C)[C@@H](CC(C)C)C(=O)N[C@@H]([C@@H](C)CC)C(=O)N(C)CC(=O)N(C)[C@H]3C/C=C\\CCN(C3=O)[C@@H](Cc3ccc(C(F)(F)F)cc3)C(=O)N(C)CC(=O)N[C@@H](CCc3ccc(C(F)(F)F)c(OC)c3)C(=O)N2C1", "note": "[PP2161]", "values": [
      {"measurement": "NRAS/KRAS (ratio of KD value with respect to NRAS to KD value with respect to KRAS)", "setting": "[1]; [3]", "value": "AA (a compound having 20 or more is denoted as AA)"},
      {"measurement": "HRAS/KRAS (ratio of KD value with respect to HRAS to KD value with respect to KRAS)", "setting": "[2]; [4]", "value": "A (a compound having 10 or more and less than 20 is denoted as A)"}
    ]},
    {"smiles": "CCCN1C(=O)CN(C)C(=O)CN(C2CC2)C(=O)[C@H]([C@@H](C)CC)NC(=O)[C@H](CC(C)C)N(C)C(=O)C[C@@H](C(=O)N2CCOCC2)N(C)C(=O)[C@H](C2CCCC2)N(C)C(=O)C2(CCCC2)NC(=O)[C@@H]2CCCN2C(=O)[C@H](CCc2ccc(C(F)(F)F)c(Cl)c2)NC(=O)CN(C)C(=O)[C@@H]1Cc1ccc(C(F)(F)F)cc1", "note": "[PP0252] ([NMeL]I[NcPrGly][Sar][NPrPhe(4-CF3)][Sar][hPhe(3-Cl-4-CF3)]P[Ac5c][NMeGly(cPent)][NMeD]-Morpholide; lactam N-11)", "values": [
      {"measurement": "NRAS/KRAS (ratio of KD for GDP-bound NRAS wild-type to KD for KRAS)", "setting": "[1]; SPR", "value": "B (a compound having 3 or more and less than 10 is denoted as B)"},
      {"measurement": "HRAS/KRAS (ratio of KD for GDP-bound HRAS wild-type to KD for KRAS)", "setting": "[2]; SPR", "value": "B (a compound having 3 or more and less than 10 is denoted as B)"}
    ]}
  ]
}
